Where a SMILES comes first, the peptide text is derived from it.

The target of the experiment is guinea pig brain membranes. The experiment is described as follows: Binding test with guinea pig brain membranes. The conditions noted are these: tested on guinea pig brain membranes; read-out: IC50 = 100 μM. On the procedure: Binding Assay Alternative Protocol by Skatron
The experimental conditions are identical for all the binding assay protocols except for the fact that: i) the volume R in operation is 200 μl; ii) the test carried out in 96-well Falcon plates iii) the reaction is directly stopped by filtration on filterMat (ref. 11734) Skatron and the radioactivity associated with the filtrate is evaluated: either directly with a γ counter for the peptides labelled with […]: or with a […] in the presence of 5 ml of scintillating liquid.
Membrane Preparations of Guinea Pig Brains and Binding Assay
The guinea pigs are sacrificed by rupturing their cervical vertibrae, decapitated, and the brains are removed very rapidly and placed into a sucrose-Tris-HCl buffer (0.32 M sucrose 5 mM, Tris-HCl, 0.1 g/l bacitracin) at 4° C. (about 10 ml of buffer per brain). The brains are then homogenized using a Potter device and the homogenate is placed in incubation for 30 minutes at 37° C. under agitation, then centrifuged twice for 35 minutes at 100,000×g at 4° C. The protein content of the membrane preparations is evaluated according to the Bradford method (BioRad, according to the manufacturers protocol).
Bonding of Labelled Agonists to the Guinea Pig Brain Membrane Preparation The membranes are placed in a buffer (50 mM of Tris-HCl, 5 mM of MgCl2 and 0.1 g/l of bacitracin) at the desired protein concentration (iodized CCK bond, 0.1 mg of protein/ml; iodized gastrin bond: 0.5 mg of proteins/ml). They are then incubated in the presence of a labelled ligand in a total volume of 500 μl (about 10 pM for the iodized CCK8, 20 pM for the iodized gastrin13), 50-80 minutes at 25° C., and in the presence or absence of cold agonists. The reaction is stopped with 3 ml of additional BSA buffer (20 g/l) at 4° C., the tubes are centrifuged at 10,000×g, the supernatant is drawn off and the radioactivity associated with the precipitate is evaluated with a γ counter.
For `CSCC[C@H](NC(=O)CNC(=O)[C@H](Cc1ccccc1)NC(=O)[C@H](CC(N)=O)NC(=O)[C@H](CCCNC(=N)N)NC(=O)[C@H](CC(C)C)NC(=O)[C@@H](NC(=O)[C@H](CCSC)NC(=O)[C@H](CC(C)C)NC(=O)[C@H](CO)NC(=O)[C@@H](N)Cc1ccccc1)[C@@H](C)O)C(N)=O` [Example 28, H-FSLMTLRNFGM-NH2] (H-FSLMTLRNFGM-NH2), the half-inhibitory concentration (IC50) is 400 nM.

As for `CC(C)C[C@H](NC(=O)[C@@H]1CCCN1C(=O)[C@H](CC(C)C)NC(=O)[C@H](CCC(N)=O)NC(=O)[C@@H](N)Cc1ccccc1)C(=O)N[C@@H](CC(=O)O)C(=O)N[C@@H](CCCCN)C(=O)NCC(=O)N[C@@H](CC(N)=O)C(N)=O` [Example 29, H-FQLPLDKGN-NH2] (H-FQLPLDKGN-NH2), the IC50 was 10 nM.

For the compound `CC[C@H](C)[C@H](NC(=O)[C@H](CO)NC(=O)[C@H](Cc1ccccc1)NC(=O)[C@@H](N)CO)C(=O)N[C@H](C(=O)NCC(=O)N[C@@H](CC(=O)O)C(=O)N[C@@H](Cc1ccccc1)C(=O)N[C@@H](CCC(N)=O)C(=O)N[C@@H](CC(N)=O)C(N)=O)[C@@H](C)CC` [Example 30, H-SFSIIGDFQN-NH2] (H-SFSIIGDFQN-NH2), the concentration for half-maximal inhibition (IC50) was found to be 27000 nM.

`CC[C@H](C)[C@H](NC(=O)[C@H](CCC(=O)O)NC(=O)[C@H](C)NC(=O)[C@@H](N)C(C)C)C(=O)N[C@@H](CCC(N)=O)C(=O)NCC(=O)N[C@@H](Cc1c[nH]cn1)C(=O)N[C@@H](C)C(=O)NCC(N)=O` [Example 32, H-VAEIQGHAG-NH2] (H-VAEIQGHAG-NH2): the half-maximal inhibitory concentration (IC50) came to 200 nM.

Turning to `CC[C@H](C)[C@H](NC(=O)[C@H](CC(N)=O)NC(=O)[C@H](Cc1c[nH]cn1)NC(=O)[C@@H](N)CC(C)C)C(=O)N[C@@H](CC(C)C)C(=O)NCC(=O)N[C@H](C(=O)N[C@@H](CCC(=O)O)C(=O)N[C@H](C(=O)NCC(=O)NCC(=O)N1CCC[C@H]1C(=O)NCC(N)=O)[C@@H](C)O)C(C)C` [Example 33, H-LHNILGVETGGPG-NH2] (H-LHNILGVETGGPG-NH2), the IC50 came to 100 nM.

With `CC(C)C[C@H](NC(=O)[C@H](CC(N)=O)NC(=O)[C@H](CC(=O)O)NC(=O)[C@H](Cc1c[nH]c2ccccc12)NC(=O)[C@@H](NC(=O)[C@H](CC(C)C)NC(=O)[C@H](CC(=O)O)NC(=O)[C@H](CO)NC(=O)[C@H](C)NC(=O)[C@@H](N)CO)[C@@H](C)O)C(=O)N[C@@H](CCCCN)C(N)=O` [Example 34, H-SASDLTWDNLK-NH2] (H-SASDLTWDNLK-NH2), the IC50 was found to be 1000 nM.

On to `CC[C@H](C)[C@H](N)C(=O)N[C@@H](CO)C(=O)N[C@@H](CCC(=O)O)C(=O)N[C@@H](CC(C)C)C(=O)N[C@@H](Cc1ccccc1)C(=O)N[C@H](C(=O)N[C@@H](CC(C)C)C(=O)N[C@@H](CCC(=O)O)C(N)=O)[C@@H](C)O` [Example 35, H-ISELFTLE-NH2] (H-ISELFTLE-NH2), for which the IC50 amounted to 5600 nM.

Turning to `CSCC[C@H](NC(=O)[C@H](CCC(N)=O)NC(=O)[C@H](CCC(=O)O)NC(=O)[C@H](CCSC)NC(=O)[C@H](CC(C)C)NC(=O)[C@@H]1CCCN1C(=O)CNC(=O)[C@@H]1CCCN1C(=O)[C@@H]1CCCN1C(=O)CNC(=O)CNC(=O)[C@@H]1CCCN1C(=O)CNC(=O)CN)C(=O)NCC(N)=O` [Example 36, H-GGPGGPPGPLMEQMG-NH2] (H-GGPGGPPGPLMEQMG-NH2), the 50% inhibitory concentration (IC50) is 2900 nM.

As for `CC(C)C[C@H](NC(=O)[C@H](C)N)C(=O)N[C@@H](CCC(=O)O)C(=O)N[C@@H](Cc1c[nH]c2ccccc12)C(=O)N[C@@H](CC(C)C)C(=O)NCC(=O)N[C@@H](C)C(=O)N[C@@H](CC(=O)O)C(=O)N[C@@H](CCCNC(=N)N)C(=O)N[C@@H](CC(N)=O)C(=O)N[C@@H](CCC(=O)O)C(N)=O` [Example 37, H-ALEWLGADRNE-NH2] (H-ALEWLGADRNE-NH2), the half-inhibitory concentration (IC50) is 800 nM.

The record behind these values is patent publication US20020059032A1, “Rational selection of putative peptides from identified nucleotide or peptide sequences” (priority 1999, published 2002).
